According to PubChem BioAssay AID1053177 (The Scripps Research Institute Molecular Screening Center, 2014):
The source made the active and inactive calls.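 Rule for the calls: active = EC50 of 10 µM or lower; inactive = EC50 above 10 µM.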

Target: Trace amine-associated receptor 1 (Homo sapiens) (UniProt Q96RJ0)
Experiment: activators of human TAAR1 receptor – cell-based, fluorescence, MDRUN002, late-stage follow-up (AID 1053177)
Conditions: CHO TAAR1-HGA16 cells, cAMP TR-FRET, agonist

Trace amine-associated receptor 1 (Homo sapiens), sequence (Q96RJ0 whole entry, looked up): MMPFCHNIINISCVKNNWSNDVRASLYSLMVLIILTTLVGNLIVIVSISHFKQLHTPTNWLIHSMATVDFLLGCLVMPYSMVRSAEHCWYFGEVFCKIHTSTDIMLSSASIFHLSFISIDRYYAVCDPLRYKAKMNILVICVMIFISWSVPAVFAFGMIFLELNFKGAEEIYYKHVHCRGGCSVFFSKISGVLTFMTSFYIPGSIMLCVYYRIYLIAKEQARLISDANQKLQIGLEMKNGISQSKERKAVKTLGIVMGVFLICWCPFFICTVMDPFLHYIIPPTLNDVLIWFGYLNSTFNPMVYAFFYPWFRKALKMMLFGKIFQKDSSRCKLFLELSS

SMILES | EC50
N#Cc1c(C(F)(F)F)cc(-c2ccc(Cl)cc2)nc1SCC(=O)N1CCCCCC1 | > 37400 nM (inactive)
N#Cc1c(C(F)(F)F)cc(-c2ccc(Cl)cc2)nc1SCC(=O)Nc1ncccn1 | > 37400 nM (inactive)
O=C(CCN1CCC(c2ccccc2)C1)c1ccccc1 (configuration not stated) | 97.3 nM
COc1cc(C(=O)CCN2CCC(c3ccccc3)C2)cc(OC)c1OC (configuration not stated) | 131 nM
N#Cc1c(C(F)(F)F)cc(-c2ccc(Cl)cc2)nc1SCC(=O)N1CCCC1 | > 37400 nM (inactive)
CC(CN1CCCC1Cc1ccccc1)C(=O)c1ccc2c(c1)OCCO2 (configuration not stated) | 438 nM
Cc1ccc(C(=O)CCN2CCC(c3ccccc3)C2)cc1 (configuration not stated) | 335 nM
